Test results as given in patent publication US20260014278A1, “HYBRID PEPTIDE DENDRIMER SYSTEMS AND EXTRAHEPATIC DELIVERY” (NUNTIUS THERAPEUTICS LIMITED, priority 2022, published 2026).

How the values were obtained:
[1] = test system: human THP-1 cells; experiment: eGFP mRNA transfection of human THP-1 macrophages, flow cytometry; assay type: cell-based; conditions: THP-1, FIG. 3
Procedure: THP-1 cells (a human leukaemia monocytic cell line) were sub-cultured in RPMI (with glutamax)+10% heat inactivated FBS (complete media) at 3E+5 cells/ml and passaged every 3-4 days. For macrophage polarisation 7.5E+6 cells were seeded in T75 flasks in a total of 20 ml complete media containing 5 ng/ml PMA (1:1000 of 5 ug/ml stock). The cells were transferred to the 37° C. incubator for overnight. After 24 hrs, THP-1 cells were washed with complete medium and a fresh flask complete medium (not containing PMA) was overlaid on the cells. After a further 72 hrs, the complete medium was exchanged for fresh complete media containing 20 ng/ml rhlL-4 (1:500 of 10 μg/ml stock). 24 hrs later the cells were harvested by firstly washing the cells with PBS followed by a 5 minute treatment at 37° C. with 5 mM EDTA (diluted in PBS). Cells were spun down at 300 g for 5 minutes and resuspended in a complete medium containing 20 ng/ml rhlL-4 at 2.4E+5 cells/mi. 500 ul of cells were seeded into each well on a 24-well plate and left overnight in the 37° C. incubator.
The medium overlaying the polarised THP-1 cells was aspirated and exchanged with 480 ul/well complete media containing 20 ng/ml rhlL-4. […]
Data were collected using a BD LSRFortessa I analyser running […] software (Beckton Dickinson). All collected data were analysed using FlowJo 10.0 software. […]

[2] = test system: lung and spleen; experiment: Luciferase mRNA expression in mouse tissues after intravenous administration (bioluminescence); assay type: in vivo, Balb/c mice; conditions: 6 hours, DOTMA/DOPE w/w=23:1 to mRNA, dendrimers NP=0.6:1, FIG. 11
Procedure: All animal procedures were conducted following the Animal Research Reporting of In Vivo Experiments and approved by the UK Home Office for the conduct of regulated procedures under license. For the data underlying FIG. 11, Balb/c mice aged 4 weeks were purchased from Jackon's Laboratory and left to acclimate in the new housing environment for 1-week upon their arrival. All mice were weighed and warmed for 15 min at 37 C in a heating chamber. The formulations were delivered intravenously (5 mL/kg) via the tail vein using 30 G insulin syringes (BD biosciences).
All mice were imaged 6 hours post injection. BLI was performed using an IVIS Lumina II (Perkin Elmer) imaging system. Mice were administered D-luciferin (GoldBio) at a dose of 10 uL/g. Mice were anaesthetised in a chamber with 2.5% isoflurane and then placed on a heated imaging platform while being maintained on 2.5% isoflurane. For the data underlying FIG. 11, mice were imaged 10 min post administration of D-luciferin with an exposure time set at 45 sec to ensure the signal acquired was within an effective detection range (binning medium). Bioluminescence signal was quantified by measuring photon flux (photons/s) using the Living Image software (Perkin Elmer). […] The organs were placed in the centre of imaging platform (Lumina II system) and signal was measured using the acquisition settings detailed above. […]

Question: Which “increase of transfection efficiency at NP=0.6:1 compared to NP=5:1” value [1] does the source give for (RHL)4(KRHL)2KGSC-NH2 [GSCG1,2-RHL] here?
Answer: approximately 10%

Question: And the “delivery of luciferase mRNA cargo to lung and spleen (bioluminescence)” value [2]?
Answer: further improved
